Activity calls are given as the source filed them.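 How the source made its calls: active means IC50 below 100 nM in HeLa cells, the median call across repeat tests; inactive means IC50 above 100 nM in HeLa cells.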

Assay [1] relates to HeLa viability, CellTiter-Glo luminescence, 48 h. The experiment in a line: HeLa cell killing, TP53 mutant line, dose response, CellTiter-Glo luminescence, dry powder (AID 743087).
Assay in assay [2]: as above
Conditions: HeLa viability, CellTiter-Glo luminescence, 48 h. (In general: ATP-based viability assays read luminescence as a measure of living cells.)

With `CC1(C)C(=O)NN=C1c1ccc(Cl)cc1`, the IC50 in assay [1] was > 1 µM (inactive).

As for `C[C@@H]1CC(=O)NN=C1c1ccc(N2CCOCC2)cc1` (racemic), the half-maximal inhibitory concentration (IC50) in assay [1] is 0.0351 µM.

For `CC(=O)Nc1ccc(C2=NNC(=O)C[C@H]2C)cc1Br`, in assay [1], the IC50 is 0.0214 µM.

Consider `CC1(C)C(=O)NN=C1c1ccc(N2CCOCC2)cc1`, for which the IC50 in assay [1] is > 1 µM (inactive).

As for `CCN1N=C(c2ccc(N(CC)CC)cc2)[C@H](C)CC1=O`, the IC50 in assay [1] was > 1 µM (inactive).

For the molecule `C[C@@H]1CC(=O)NN=C1c1ccc(C2CCCCC2)cc1`, the 50% inhibitory concentration (IC50) in assay [1] is 0.00759 µM.

Turning to `CCNc1ccc(C2=NNC(=O)C[C@H]2C)cc1[N+](=O)[O-]`, in assay [1], the IC50 is 0.00108 µM.

For `C[C@@H]1CC(=O)NN=C1c1ccc(F)cc1` (racemic), the IC50 in assay [1] was 0.36 µM (inactive).

Consider `CC1CC(=O)NN=C1c1ccc(N2CCN(C(=O)Cc3ccc(Cl)cc3Cl)CC2)cc1` (configuration not stated), for which the IC50 in assay [1] is > 1 µM (inactive).

On to `CCN(CC)c1ccc(C2=NNC(=O)CC2C)cc1` (configuration not stated), for which, in assay [1], the IC50 was 0.00854 µM.

`C[C@@H]1CC(=O)NN=C1c1ccc(N)c([N+](=O)[O-])c1`: the IC50 in assay [1] was > 1 µM (inactive).

Regarding `CCN(CC)c1ccc(-c2n[nH]c(=O)cc2C)cc1`, the IC50 in assay [1] is > 1 µM (inactive).

As for `CC1(C)C(=O)NN=C1c1ccc([N+](=O)[O-])cc1`, in assay [1], the IC50 was > 1 µM (inactive).

Take `Cc1nc2ccc(C3=NNC(=O)C[C@H]3C)cc2[nH]1`: in assay [1], the IC50 is > 1 µM (inactive).

Consider `C[C@@H]1CC(=O)NN=C1c1ccc(N2CCCCC2=O)cc1`, for which the IC50 in assay [1] was > 1 µM (inactive).

For `C[C@@H]1CC(=O)NN=C1c1ccc(Cl)cc1`, in assay [1], the IC50 is 0.0326 µM.

With `C[C@@H]1CC(=O)NN=C1c1ccc(N2CCOCC2)cc1`, the IC50 in assay [1] is 0.013 µM.

With `CCN(CC)c1ccc(C2=NNC(=O)C2(C)C)cc1`, the IC50 in assay [1] is > 1 µM (inactive).

In the case of `CC1(C)C(=O)NN=C1c1ccc(N)cc1`, in assay [1], the IC50 was > 1 µM (inactive).

In the case of `CCCc1ccc(C2=NNC(=O)C[C@H]2C)cc1`, the IC50 in assay [1] is 0.0162 µM.

As for `C/C=C/c1ccc(C2=NNC(=O)C[C@H]2C)cc1`, the IC50 in assay [1] is 0.00873 µM.

For the molecule `C[C@@H]1CC(=O)NN=C1c1ccc(I)cc1`, the half-inhibitory concentration (IC50) in assay [1] is 0.00702 µM.

Regarding `CC1CC(=O)NN=C1c1cccs1` (configuration not stated), the IC50 in assay [1] is > 1 µM (inactive).

In turn, `CC(=O)Nc1ccc(C2=NNC(=O)C[C@H]2C)cc1[N+](=O)[O-]` came in with an IC50 in assay [1] of 0.00478 µM.

Turning to `CCN(CC)c1ccc(C(=O)Nc2ccccc2)cc1[N+](=O)[O-]`, in assay [1], the IC50 is > 1 µM (inactive).

For `C#Cc1cc(C2=NNC(=O)C[C@H]2C)ccc1NC(C)=O`, the IC50 in assay [1] is 0.0646 µM.

Turning to `Cc1ccc(CCC(=O)N2CCN(c3ccc(C4=NNC(=O)CC4C)cc3)CC2)cc1` (configuration not stated), the IC50 in assay [1] was > 1 µM (inactive).

On to `CC1C(=O)NN=C1c1ccc([N+](=O)[O-])cc1` (configuration not stated), for which, in assay [1], the IC50 is > 1 µM (inactive).

On to `C[C@@H]1CC(=O)NN=C1c1ccc(C2=CCCCC2)cc1`, for which, in assay [1], the IC50 is 0.00222 µM.

`CC1CC(=O)N(c2ccccc2)N=C1c1ccc(Cl)cc1` (configuration not stated): the IC50 in assay [1] was > 1 µM (inactive).

As for `Cc1cc(=O)[nH]nc1-c1ccc(N)cc1`, in assay [1], the IC50 was > 1 µM (inactive).

Take `CC(=O)Nc1ccc(C2=NNC(=O)C[C@H]2C)cc1C(C)=O`: the IC50 in assay [1] was 0.126 µM (inactive).

Consider `CCN(CC)c1ccc(C2=NNC(=O)C[C@H]2C)cc1`, for which the IC50 in assay [1] is 0.00371 µM.

As for `CCN(CC)c1ccc(C2=NNC(=O)C[C@H]2C)cc1[N+](=O)[O-]`, in assay [1], the IC50 was > 1 µM (inactive).

As to `C[C@@H]1CC(=O)NN=C1c1ccc(N2CCCC2=O)cc1`, in assay [1], the IC50 was 0.133 µM (inactive).

On to `CC(=O)N1CCN(c2ccc(C3=NNC(=O)CC3C)cc2F)CC1` (configuration not stated), for which, in assay [1], the IC50 is > 1 µM (inactive).

Turning to `CC1CC(=O)NN=C1c1ccc(N2CCOCC2)c(F)c1` (configuration not stated), the IC50 in assay [1] was 0.00273 µM.

With `C[C@@H]1CC(=O)NN=C1c1ccc([Si](C)(C)C)cc1`, the IC50 in assay [1] was 0.179 µM (inactive).

Consider `CCN(CC)c1ccc(-c2nc(C(C)C)no2)cc1[N+](=O)[O-]`, for which the outcome in assay [2] was inactive.

`C[C@@H]1CC(=O)NN=C1c1ccc(F)c(F)c1`: in assay [1], the concentration for half-maximal inhibition (IC50) was 0.022 µM.

For the molecule `C[C@@H]1CC(=O)NN=C1c1ccc(N)c(Br)c1`, in assay [1], the IC50 was > 1 µM (inactive).

For `CC(=O)Nc1ccc(C2=NNC(=O)C[C@H]2C)cc1N`, the IC50 in assay [1] is > 1 µM (inactive).

For the molecule `C[C@@H]1CC(=O)NN=C1c1ccc(N2CCN(C)CC2)cc1`, the IC50 in assay [1] was 0.297 µM (inactive).

For the molecule `CC(=O)Nc1ccc(C2=NNC(=O)CC2C)cc1` (configuration not stated), the IC50 in assay [1] is > 1 µM (inactive).

`O=C1CC(c2ccccc2)=NN1`: the IC50 in assay [1] was > 1 µM (inactive).

Regarding `C[C@@H]1CC(=O)NN=C1c1ccc(N2CCCOC2=O)cc1`, the IC50 in assay [1] is > 1 µM (inactive).

For `CC1CC(=O)NN=C1c1ccc(F)c(F)c1` (configuration not stated), the IC50 in assay [1] was 0.0641 µM.

`C[C@H]1CC(=O)NN=C1c1ccc(N2CCOCC2)c(F)c1`: the IC50 in assay [1] was > 1 µM (inactive).

As to `C[C@H]1CC(=O)NN=C1c1ccc(F)c(F)c1`, in assay [1], the IC50 was > 1 µM (inactive).

Consider `CC(=O)Nc1ccc(-c2n[nH]c(=O)cc2C)cc1`, for which the IC50 in assay [1] is > 1 µM (inactive).

Turning to `C[C@@H]1CC(=O)NN=C1c1ccc(N2CCCCC2)cc1`, the IC50 in assay [1] was 0.00383 µM.

On to `CCN(CC)c1ccc(C2=NNC(=O)CC2C)cc1NCCOCCOCCNC(=O)OC(C)(C)C` (configuration not stated), for which, in assay [1], the IC50 was > 1 µM (inactive).

For the molecule `CCN(CC)c1ccc(C2=NNC(=O)CC2C)cc1N` (configuration not stated), in assay [1], the IC50 was 0.232 µM (inactive).

For the molecule `C[C@@H]1CC(=O)NN=C1c1ccc(N2CCOCC2)c(F)c1`, the IC50 in assay [1] is 0.00158 µM.

`CCN(CC)c1ccc(C2=NNC(=O)CC2C)cc1NC(C)=O` (configuration not stated): the IC50 in assay [1] was > 1 µM (inactive).

With `CCNc1ccc(C2=NNC(=O)C[C@H]2C)cc1`, the IC50 in assay [1] was 0.071 µM.

With `C[C@@H]1CC(=O)NN=C1c1ccccc1`, the IC50 in assay [1] is 0.428 µM (inactive).

As to `C[C@@H]1CC(=O)NN=C1c1ccc(-n2cnnc2)cc1`, in assay [1], the IC50 was > 1 µM (inactive).

For `CC(=O)Nc1ccc(C2=NNC(=O)C[C@H]2C)cc1`, the 50% inhibitory concentration (IC50) in assay [1] was 0.00478 µM.

For `C[C@@H]1CC(=O)NN=C1c1ccc(-c2cncnc2)cc1`, the IC50 in assay [1] was 0.0126 µM.

In the case of `C[C@@H]1CC(=O)NN=C1c1ccc(N2CCCCS2(=O)=O)cc1`, the IC50 in assay [1] is 0.478 µM (inactive).

For `O=C1C[C@H]2CCc3cc(N4CCOCC4)ccc3C2=NN1` (racemic), the IC50 in assay [1] is > 1 µM (inactive).

The term IC50 denotes the concentration that inhibits the measured activity by half.

The record behind these values is PubChem BioAssay AID743087 (Broad Institute, 2013).
